What all share (type): cell-based
The subject of one assay is P. morganii. The assay can be described thus: standard microtitre (MIC) test, P. morganii. As to conditions: Morganella morganii. The source says:
(§1) In a standard microtitre (MIC) test, the compound of Example 14 gave the following data: […]

For a further assay, the system named is K. aerogenes A. The assay can be described thus: standard microtitre (MIC) test, K. aerogenes A. As to conditions: Klebsiella aerogenes.
From the text: as §1

The next assay concerns S. aureus Russell. The assay can be described thus: standard microtitre (MIC) test, S. aureus Russell. As to conditions: Staphylococcus aureus.
From the text: as §1

For a further assay, the system named is S. marcescens US32. The assay can be described thus: standard microtitre (MIC) test, S. marcescens US32. As to conditions: Serratia marcescens.
From the text: as §1

The next assay concerns E. coli JT4. Briefly: standard microtitre (MIC) test, E. coli JT4. As to conditions: Escherichia coli.
From the text: as §1

In the next assay the test system is E. coli NCTC 10418. The assay can be described thus: standard microtitre (MIC) test, E. coli NCTC 10418. As to conditions: Escherichia coli, NCTC10418.
From the text: as §1

For a further assay, the system named is E. cloacae N1. The assay can be described thus: standard microtitre (MIC) test, E. cloacae N1. As to conditions: Enterobacter cloacae.
From the text: as §1

Results on 1 compound are retold here after US4678782A, “3S-formamido azetidinone antibacterial agents, their preparation and use” (Beecham Group p.l.c., priority 1982, dated 1987).

Take `CCN1CCN(C(=O)N[C@@H](C(=O)NC2(NC=O)CN(S(=O)(=O)O)C2=O)c2ccccc2)C(=O)C1=O` (stereo partly drawn) [Example 14, (3RS)-Potassium-3-[D-2-(4-Ethyl-2,3-dioxopiperazin-1-yl-carboxamido)-2-phenylacetamido]-3-formamido-2-oxo-azetidine-1-sulphonate]: the MIC is 6.4 µg/mL against P. morganii; 3.2 µg/mL in the assay with K. aerogenes A; 3.2 µg/mL against S. aureus Russell; 12.5 µg/mL with S. marcescens US32; 25 µg/mL against E. coli JT4; 12.5 µg/mL in the assay on E. coli NCTC 10418. Also, inhibition of growth in the assay on E. cloacae N1 (MIC) required 12.5 µg/mL.
